Patent US8729132B2, “Agomelatine hydrobromide hydrate and preparation thereof” (Les Laboratoires Servier, priority 2010, dated 2014)
Where a name gives a salt, the structure may show the parent alone. Each block holds one compound with its values, some of them ahead of it.

Legend:
Assay type in all cases: physicochemical
[1] = Water solubility by HPLC, external standard method
Description: Using external standard method, the product of example 1 was tested with HPLC, compared with agomelatine crystalline form II.

[2] = Stability test per Chinese Pharmacopoeia (affecting factors, accelerated, long-term); conditions: for Water: initial 5.25%; for Br: initial 23.21%; for Purity of agomelatine hydrobromide hydrate: initial value 99.89%
Description: The method for stability test as described in Chinese Pharmacopoeia was used in this test. • 1) Affecting factors test (in open container for 10 days): high temperature (60° C.), photostability under strong light ([…]), high humidity (92.5% RH at 25° C.) • 2) Accelerated test (in closed container for 6 months): at 40° C., humidity: 75% RH • 3) Long-term test (in closed container for 9 months): at 25° C., humidity: 60% RH

[3] = Stability test, incubator at 40° C. for 30 days, HPLC
Description: Chromatographic conditions: C18 column; mobile phase: 10 mmol/L phosphate buffer (adjusted to pH 7.0 with NaOH): acetonitrile=2:7 (v/v); column temperature: 40° C.; detection wavelength: 220 nm; internal standard method was used on the products of examples 1 and 2.
Solutions of the products at 1 mg/mL were prepared with the mobile phase. 10 μL of each solution was injected into the liquid chromatograph system and chromatograms were recorded. The results of the purity are shown in examples 1 and 2.
The product of example 1 was placed in an incubator at 40° C. for 30 days to determine its stability with HPLC.

[4] = Accelerated test: closed container, 6 months, 40° C., 75% RH
[5] = Affecting factors: high humidity (92.5% RH at 25° C.), open container, 10 days
[6] = Affecting factors: high temperature (60° C.), open container, 10 days
[7] = Affecting factors: strong light (45001x), open container, 10 days
[8] = Long-term test: closed container, 9 months, 25° C., 60% RH

Agomelatine content ([1]; In 0.1N HCl, hydrobromide hydrate): 0.37 mg/mL
Agomelatine content ([1]; In pH 7.0 buffer, hydrobromide hydrate): 0.31 mg/mL
Agomelatine content ([1]; In water, hydrobromide hydrate): 0.33 mg/mL
Water [2, 4]: 5.41%
Br [2, 4]: 23.07%
Purity of agomelatine hydrobromide hydrate [2, 4]: 99.83%
Water [2, 5]: 5.45%
Br [2, 5]: 23.11%
Purity of agomelatine hydrobromide hydrate [2, 5]: 99.83%
Water [2, 6]: 5.18%
Br [2, 6]: 21.95%
Purity of agomelatine hydrobromide hydrate [2, 6]: 99.87%
Water [2, 7]: 5.22%
Br [2, 7]: 22.61%
Purity of agomelatine hydrobromide hydrate [2, 7]: 99.71%
Water [2, 8]: 5.18%
Br [2, 8]: 22.52%
Purity of agomelatine hydrobromide hydrate [2, 8]: 99.84%
stability (overall conclusion) ([2]; affecting factors, accelerated and long-term tests): stable
stability with HPLC (purity) ([3]; Day 0): 99.7%
stability with HPLC (purity) ([3]; Day 5): 99.7%
stability with HPLC (purity) ([3]; Day 10): 99.6%
stability with HPLC (purity) ([3]; Day 30): 99.6%
Structure (SMILES): COc1ccc2cccc(CCNC(C)=O)c2c1 [AG•HBr•H2O, agomelatine hydrobromide hydrate]
solubility compared with agomelatine per se ([1]; in water, 0.1N HCl or pH 7.0 buffer): better solubility than agomelatine per se

Agomelatine content ([1]; In 0.1N HCl): 0.30 mg/mL
Agomelatine content ([1]; In pH 7.0 buffer): 0.25 mg/mL
Agomelatine content ([1]; In water): 0.26 mg/mL
Structure (SMILES): COc1ccc2cccc(CCNC(C)=O)c2c1 [AG crystalline form II, N-[2-(7-methoxy-1-naphthyl)ethyl]-acetamide, reference compound]
